Compound in experiment [1]: O=[As]([O-])(O)O.[K+] [potassium arsenate]
The experiment is described as follows: thermal stability z-score vs DMSO; higher = more thermally stabilized by treatment. To be noted: HeLa; arsenate concentration 1 mM. The method, then: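 Cellular thermal proteome profiling in HeLa cells treated with 1 mM arsenate for 1 h (DMSO pretreatment), heated to ten temperatures (37-66.3 °C). Soluble protein was quantified by TMT mass spectrometry relative to DMSO controls; the thermal stability score was transformed to a z-score; mean of n = 3 experiments.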

Compound in experiment [2]: NC(=O)CCCCC1CCSS1 [lipoamide]
The experiment is described as above. To be noted: HeLa, lipoamide concentration 100 µM. The method, then:
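Cellular thermal proteome profiling in HeLa cells. Cells were treated with 100 µM lipoamide for 1 h, with or without 1 mM arsenate for a further 1 h, then heated to ten temperatures (37-66.3 °C), and soluble protein was quantified by TMT mass spectrometry relative to 0.1% DMSO controls. The thermal stability score (sum of log2 fold changes minus the abundance score) was transformed to a z-score; mean of n = 3 experiments.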

Where [3] appears, read: arsenate co-treatment: 1 mM arsenate 1 h.
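Also: each temperature applied for 3 min, abundance score taken as mean log2 fold change at the two lowest temperatures, z-score obtained by mean subtraction and division by SD.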

UniProt Q14674, sequence (Q14674 whole entry): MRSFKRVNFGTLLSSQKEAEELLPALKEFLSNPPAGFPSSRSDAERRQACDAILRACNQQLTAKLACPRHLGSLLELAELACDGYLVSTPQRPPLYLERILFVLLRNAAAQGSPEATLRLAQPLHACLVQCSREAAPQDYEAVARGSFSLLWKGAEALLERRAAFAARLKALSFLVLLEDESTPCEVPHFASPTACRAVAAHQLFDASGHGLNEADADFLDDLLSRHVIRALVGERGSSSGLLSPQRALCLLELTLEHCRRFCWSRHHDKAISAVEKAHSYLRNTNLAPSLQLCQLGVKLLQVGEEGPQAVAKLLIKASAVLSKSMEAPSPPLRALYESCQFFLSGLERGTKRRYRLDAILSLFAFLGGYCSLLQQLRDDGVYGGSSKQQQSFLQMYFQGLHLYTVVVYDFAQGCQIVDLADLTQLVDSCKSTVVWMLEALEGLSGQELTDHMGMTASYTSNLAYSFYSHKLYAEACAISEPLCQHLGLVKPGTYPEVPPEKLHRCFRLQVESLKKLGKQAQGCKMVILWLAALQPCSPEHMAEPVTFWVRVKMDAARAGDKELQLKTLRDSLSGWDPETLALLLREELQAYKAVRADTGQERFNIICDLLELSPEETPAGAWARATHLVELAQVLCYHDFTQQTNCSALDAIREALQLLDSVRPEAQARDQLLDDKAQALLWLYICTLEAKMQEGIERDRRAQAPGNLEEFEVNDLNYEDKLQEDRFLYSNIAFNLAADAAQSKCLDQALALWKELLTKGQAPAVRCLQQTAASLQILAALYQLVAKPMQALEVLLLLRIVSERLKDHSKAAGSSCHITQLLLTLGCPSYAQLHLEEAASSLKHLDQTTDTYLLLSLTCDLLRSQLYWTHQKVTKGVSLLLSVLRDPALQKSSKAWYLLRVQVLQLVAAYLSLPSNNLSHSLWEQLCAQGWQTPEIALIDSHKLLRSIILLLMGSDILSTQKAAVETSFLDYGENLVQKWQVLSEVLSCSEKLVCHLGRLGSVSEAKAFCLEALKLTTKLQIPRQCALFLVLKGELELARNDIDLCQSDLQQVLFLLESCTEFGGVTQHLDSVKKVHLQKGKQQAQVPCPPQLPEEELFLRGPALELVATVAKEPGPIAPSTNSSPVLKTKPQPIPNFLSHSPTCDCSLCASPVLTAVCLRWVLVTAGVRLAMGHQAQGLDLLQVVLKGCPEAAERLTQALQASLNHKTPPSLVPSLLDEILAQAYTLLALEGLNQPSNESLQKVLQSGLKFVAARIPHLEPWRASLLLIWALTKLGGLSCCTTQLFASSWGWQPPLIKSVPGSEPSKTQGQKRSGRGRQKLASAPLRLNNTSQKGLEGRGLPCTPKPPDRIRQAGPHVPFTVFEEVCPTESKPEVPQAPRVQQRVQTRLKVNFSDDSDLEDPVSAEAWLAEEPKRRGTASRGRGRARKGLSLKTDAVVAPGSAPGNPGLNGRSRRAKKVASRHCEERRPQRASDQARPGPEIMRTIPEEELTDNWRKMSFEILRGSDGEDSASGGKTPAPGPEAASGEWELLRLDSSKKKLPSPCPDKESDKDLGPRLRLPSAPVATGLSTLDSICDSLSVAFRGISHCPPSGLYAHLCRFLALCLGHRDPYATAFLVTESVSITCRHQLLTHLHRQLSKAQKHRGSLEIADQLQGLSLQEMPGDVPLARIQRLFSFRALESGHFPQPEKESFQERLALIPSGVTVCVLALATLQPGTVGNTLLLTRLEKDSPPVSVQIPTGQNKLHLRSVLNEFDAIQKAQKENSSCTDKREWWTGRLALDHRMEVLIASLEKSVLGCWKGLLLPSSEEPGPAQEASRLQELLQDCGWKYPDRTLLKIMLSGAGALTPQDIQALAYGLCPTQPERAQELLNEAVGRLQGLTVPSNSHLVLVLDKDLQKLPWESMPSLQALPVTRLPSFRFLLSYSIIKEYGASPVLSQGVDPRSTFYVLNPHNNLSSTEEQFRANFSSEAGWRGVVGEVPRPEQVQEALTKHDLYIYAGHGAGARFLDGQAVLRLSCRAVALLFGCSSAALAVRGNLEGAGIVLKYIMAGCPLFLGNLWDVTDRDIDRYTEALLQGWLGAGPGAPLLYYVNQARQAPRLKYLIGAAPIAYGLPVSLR
UniProt Q01970, sequence (Q01970 whole entry): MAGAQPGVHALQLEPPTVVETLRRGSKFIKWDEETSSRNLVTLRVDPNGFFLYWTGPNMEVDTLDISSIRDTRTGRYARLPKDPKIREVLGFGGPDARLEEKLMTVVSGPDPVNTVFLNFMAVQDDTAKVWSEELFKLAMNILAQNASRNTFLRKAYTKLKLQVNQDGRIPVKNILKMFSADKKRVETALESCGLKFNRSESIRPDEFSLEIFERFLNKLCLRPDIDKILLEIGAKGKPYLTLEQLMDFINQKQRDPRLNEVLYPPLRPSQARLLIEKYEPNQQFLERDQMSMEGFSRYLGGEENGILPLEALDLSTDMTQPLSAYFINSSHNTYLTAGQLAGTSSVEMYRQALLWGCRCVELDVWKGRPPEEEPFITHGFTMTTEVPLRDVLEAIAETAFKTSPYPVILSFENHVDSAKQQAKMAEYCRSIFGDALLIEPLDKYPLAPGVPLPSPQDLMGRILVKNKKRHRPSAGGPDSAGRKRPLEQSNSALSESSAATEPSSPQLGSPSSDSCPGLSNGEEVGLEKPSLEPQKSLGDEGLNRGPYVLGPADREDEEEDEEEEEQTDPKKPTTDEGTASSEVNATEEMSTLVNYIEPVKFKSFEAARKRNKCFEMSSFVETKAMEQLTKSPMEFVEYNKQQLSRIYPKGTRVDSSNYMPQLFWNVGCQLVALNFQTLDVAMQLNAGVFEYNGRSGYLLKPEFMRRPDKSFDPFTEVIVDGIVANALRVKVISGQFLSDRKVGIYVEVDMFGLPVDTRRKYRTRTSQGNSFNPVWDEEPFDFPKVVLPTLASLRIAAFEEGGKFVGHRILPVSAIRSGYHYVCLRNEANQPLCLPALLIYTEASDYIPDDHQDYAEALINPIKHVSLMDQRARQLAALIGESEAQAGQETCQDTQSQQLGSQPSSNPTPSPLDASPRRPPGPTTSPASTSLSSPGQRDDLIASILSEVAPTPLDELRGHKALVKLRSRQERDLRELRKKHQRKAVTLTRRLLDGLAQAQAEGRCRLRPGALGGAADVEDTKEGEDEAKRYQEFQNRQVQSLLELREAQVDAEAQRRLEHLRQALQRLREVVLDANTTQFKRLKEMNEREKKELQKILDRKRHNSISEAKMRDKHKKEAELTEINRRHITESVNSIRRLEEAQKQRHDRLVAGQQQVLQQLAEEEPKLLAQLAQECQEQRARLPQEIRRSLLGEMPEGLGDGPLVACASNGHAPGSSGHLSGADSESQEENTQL
UniProt Q04864, sequence (Q04864 whole entry): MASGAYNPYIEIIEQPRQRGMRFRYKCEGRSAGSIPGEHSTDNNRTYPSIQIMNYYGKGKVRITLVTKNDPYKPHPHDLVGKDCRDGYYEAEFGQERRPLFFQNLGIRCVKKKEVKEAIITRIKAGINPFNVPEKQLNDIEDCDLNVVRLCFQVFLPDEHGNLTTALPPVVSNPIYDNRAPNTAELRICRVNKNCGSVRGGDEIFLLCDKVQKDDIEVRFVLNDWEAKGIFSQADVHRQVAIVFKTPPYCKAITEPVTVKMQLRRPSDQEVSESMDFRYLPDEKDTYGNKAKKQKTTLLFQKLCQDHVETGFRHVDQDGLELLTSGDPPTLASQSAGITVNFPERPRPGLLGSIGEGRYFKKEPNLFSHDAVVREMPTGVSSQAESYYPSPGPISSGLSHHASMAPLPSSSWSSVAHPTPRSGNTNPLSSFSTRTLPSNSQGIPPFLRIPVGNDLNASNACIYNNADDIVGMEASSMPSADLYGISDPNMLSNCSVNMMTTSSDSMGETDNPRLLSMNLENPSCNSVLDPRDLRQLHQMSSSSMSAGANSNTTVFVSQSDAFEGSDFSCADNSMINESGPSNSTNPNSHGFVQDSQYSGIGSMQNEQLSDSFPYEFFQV
UniProt Q9NZN8, sequence (Q9NZN8 whole entry): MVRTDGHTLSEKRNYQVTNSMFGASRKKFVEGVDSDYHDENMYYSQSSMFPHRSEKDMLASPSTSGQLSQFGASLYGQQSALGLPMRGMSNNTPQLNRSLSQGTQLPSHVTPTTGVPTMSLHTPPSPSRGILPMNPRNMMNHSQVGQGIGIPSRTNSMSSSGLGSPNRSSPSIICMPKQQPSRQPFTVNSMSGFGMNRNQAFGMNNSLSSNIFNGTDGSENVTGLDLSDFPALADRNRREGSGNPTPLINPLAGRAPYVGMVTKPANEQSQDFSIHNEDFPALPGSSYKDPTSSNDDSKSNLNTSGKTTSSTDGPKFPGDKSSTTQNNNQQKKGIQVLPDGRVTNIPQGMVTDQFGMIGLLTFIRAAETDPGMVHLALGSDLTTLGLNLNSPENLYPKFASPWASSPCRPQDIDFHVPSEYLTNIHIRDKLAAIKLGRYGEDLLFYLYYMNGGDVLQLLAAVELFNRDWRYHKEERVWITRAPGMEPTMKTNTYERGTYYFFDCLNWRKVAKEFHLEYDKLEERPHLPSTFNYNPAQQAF
UniProt Q13112, sequence (Q13112 whole entry, looked up): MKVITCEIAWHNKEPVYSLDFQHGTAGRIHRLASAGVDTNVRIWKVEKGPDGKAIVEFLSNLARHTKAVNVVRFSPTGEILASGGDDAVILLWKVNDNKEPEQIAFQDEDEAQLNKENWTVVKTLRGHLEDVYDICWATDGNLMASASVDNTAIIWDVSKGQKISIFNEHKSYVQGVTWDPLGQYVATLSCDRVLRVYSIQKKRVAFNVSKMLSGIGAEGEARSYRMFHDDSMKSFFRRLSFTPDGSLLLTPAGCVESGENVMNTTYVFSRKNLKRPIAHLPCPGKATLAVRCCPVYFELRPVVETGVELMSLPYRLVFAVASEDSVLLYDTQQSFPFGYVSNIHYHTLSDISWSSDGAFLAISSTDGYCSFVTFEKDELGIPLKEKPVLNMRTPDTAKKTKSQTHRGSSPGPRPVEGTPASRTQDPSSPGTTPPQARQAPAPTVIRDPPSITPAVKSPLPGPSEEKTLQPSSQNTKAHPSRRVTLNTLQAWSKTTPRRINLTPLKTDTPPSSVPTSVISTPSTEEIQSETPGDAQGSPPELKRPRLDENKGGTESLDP

In the case of GABPA (UniProt Q06546), the thermal stability z-score in experiment [1] is 4.54; in experiment [2] (setting [3]) it was -0.201; in experiment [2] (arsenate co-treatment: none) it was -0.185.

For the target BICC1 (UniProt Q9H694), the thermal stability z-score was -0.19 in experiment [1], 0.291 in experiment [2] (setting [3]) and 0.353 in experiment [2] (arsenate co-treatment: none).

Turning to AP1B1 (UniProt Q10567), the thermal stability z-score in experiment [1] turned out to be 0.425; in experiment [2] (setting [3]) it was 0.216; in experiment [2] (arsenate co-treatment: none), 0.0123.

Consider MDH1 (UniProt P40925), for which the thermal stability z-score is -1.45 in experiment [1], 0.208 in experiment [2] (setting [3]) and 0.368 in experiment [2] (arsenate co-treatment: none).

Regarding REL (UniProt Q04864), the thermal stability z-score is 0.22 in experiment [1], -0.801 in experiment [2] (setting [3]) and 0.147 in experiment [2] (arsenate co-treatment: none).

On to EIF3A (UniProt Q14152), for which the thermal stability z-score in experiment [1] turned out to be 0.432; in experiment [2] (setting [3]), 0.713; in experiment [2] (arsenate co-treatment: none), 0.446.

LMAN2L (UniProt Q9H0V9): the thermal stability z-score in experiment [1] was 0.373; in experiment [2] (setting [3]), -2.57; in experiment [2] (arsenate co-treatment: none) it was -1.5.

With TMED1 (UniProt Q13445), the thermal stability z-score worked out at 0.967 in experiment [1], 0.206 in experiment [2] (setting [3]) and 0.729 in experiment [2] (arsenate co-treatment: none).

As for SF3A3 (UniProt Q12874), the figures for the thermal stability z-score in experiment [1], in experiment [2] (setting [3]) and in experiment [2] (arsenate co-treatment: none) were -0.503, 0.351 and 0.639, respectively.

For the target MRPL43 (UniProt Q8N983), the results for the thermal stability z-score in experiment [1], in experiment [2] (setting [3]) and in experiment [2] (arsenate co-treatment: none) were 0.166, -0.191 and 0.245, respectively.

With SF3A1 (UniProt Q15459), the figures for the thermal stability z-score in experiment [1], in experiment [2] (setting [3]) and in experiment [2] (arsenate co-treatment: none) were -1.3, -0.152 and 0.106, respectively.

HSPA8 (UniProt P11142): the thermal stability z-score in experiment [1] was -0.107; in experiment [2] (setting [3]), -0.0626; in experiment [2] (arsenate co-treatment: none) it was 0.357.

Take ESPL1 (UniProt Q14674): the thermal stability z-score in experiment [1] is 1.94; in experiment [2] (setting [3]), 0.424; in experiment [2] (arsenate co-treatment: none) it was -0.509.

For the target RNF181 (UniProt Q9P0P0), the thermal stability z-score stood at 0.00117 in experiment [1], 1.27 in experiment [2] (setting [3]) and 1.68 in experiment [2] (arsenate co-treatment: none).

Consider UBA52 (UniProt P62987), for which the thermal stability z-score in experiment [1] is -0.00358; in experiment [2] (setting [3]), 1.26; in experiment [2] (arsenate co-treatment: none), 1.15.

As to EXOC6B (UniProt Q9Y2D4), the thermal stability z-score in experiment [1] is 0.332; in experiment [2] (setting [3]) it was 0.36; in experiment [2] (arsenate co-treatment: none), 1.01.

Turning to NOS1AP (UniProt O75052), the thermal stability z-score is -1.45 in experiment [1], 0.676 in experiment [2] (setting [3]) and -0.0802 in experiment [2] (arsenate co-treatment: none).

Turning to HSPB8 (UniProt Q9UJY1), the figures for the thermal stability z-score in experiment [1], in experiment [2] (setting [3]) and in experiment [2] (arsenate co-treatment: none) were -0.597, -0.255 and 0.0407, respectively.

In the case of TSR3 (UniProt Q9UJK0), the thermal stability z-score is -1.75 in experiment [1], -0.214 in experiment [2] (setting [3]) and -0.723 in experiment [2] (arsenate co-treatment: none).

On to SPNS1 (UniProt Q9H2V7), for which the thermal stability z-score is 0.547 in experiment [1], -0.826 in experiment [2] (setting [3]) and 0.677 in experiment [2] (arsenate co-treatment: none).

As to IMPACT (UniProt Q9P2X3), the thermal stability z-score in experiment [1] was 0.103; in experiment [2] (setting [3]) it was 0.0967; in experiment [2] (arsenate co-treatment: none), -0.0125.

As for ADD1 (UniProt P35611), the values for the thermal stability z-score in experiment [1], in experiment [2] (setting [3]) and in experiment [2] (arsenate co-treatment: none) were -0.913, -0.281 and -0.308, respectively.

As to UBAP2 (UniProt Q5T6F2), the thermal stability z-score in experiment [1] was -0.47; in experiment [2] (setting [3]), 0.26; in experiment [2] (arsenate co-treatment: none), -0.00688.

As to DPAGT1 (UniProt Q9H3H5), the thermal stability z-score in experiment [1] was -0.109; in experiment [2] (setting [3]), -0.304; in experiment [2] (arsenate co-treatment: none), 0.836.

For the target SLC38A1 (UniProt Q9H2H9), the thermal stability z-score was found to be 1.25 in experiment [1], 0.457 in experiment [2] (setting [3]) and 0.549 in experiment [2] (arsenate co-treatment: none).

Regarding CHAF1B (UniProt Q13112), the thermal stability z-score in experiment [1] is 1.29; in experiment [2] (setting [3]) it was 1.3; in experiment [2] (arsenate co-treatment: none), 1.08.

Take PLCB3 (UniProt Q01970): the thermal stability z-score in experiment [1] was -0.557; in experiment [2] (setting [3]) it was -0.0239; in experiment [2] (arsenate co-treatment: none), -0.358.

DPH2 (UniProt Q9BQC3): the thermal stability z-score in experiment [1] was -1.17; in experiment [2] (setting [3]) it was -0.0475; in experiment [2] (arsenate co-treatment: none) it was -0.355.

For NIPBL (UniProt Q6KC79), the thermal stability z-score in experiment [1] was -0.167; in experiment [2] (setting [3]), -0.0211; in experiment [2] (arsenate co-treatment: none) it was -0.00358.

With NF1 (UniProt P21359), the figures for the thermal stability z-score in experiment [1], in experiment [2] (setting [3]) and in experiment [2] (arsenate co-treatment: none) were -0.72, -0.487 and -0.235, respectively.

On to PMS1 (UniProt P54277), for which the figures for the thermal stability z-score in experiment [1], in experiment [2] (setting [3]) and in experiment [2] (arsenate co-treatment: none) were -0.486, -0.133 and -0.0146, respectively.

Take PARP4 (UniProt Q9UKK3): the thermal stability z-score in experiment [1] was 0.742; in experiment [2] (setting [3]), 0.157; in experiment [2] (arsenate co-treatment: none) it was -0.044.

Regarding GSTCD (UniProt Q8NEC7), the thermal stability z-score is -0.0694 in experiment [1], 0.682 in experiment [2] (setting [3]) and 0.492 in experiment [2] (arsenate co-treatment: none).

DCPS (UniProt Q96C86): the thermal stability z-score was -0.92 in experiment [1], -0.92 in experiment [2] (setting [3]) and -0.621 in experiment [2] (arsenate co-treatment: none).

As to PDE4DIP (UniProt Q5VU43), the thermal stability z-score was -0.0411 in experiment [1], 0.0302 in experiment [2] (setting [3]) and -0.0224 in experiment [2] (arsenate co-treatment: none).

Regarding CNOT2 (UniProt Q9NZN8), the thermal stability z-score was 1.62 in experiment [1], -0.563 in experiment [2] (setting [3]) and 0.153 in experiment [2] (arsenate co-treatment: none).

For ARHGAP27 (UniProt Q6ZUM4), the thermal stability z-score in experiment [1] is -0.309; in experiment [2] (setting [3]), -0.103; in experiment [2] (arsenate co-treatment: none), -0.156.

As for DENND6A (UniProt Q8IWF6), the results for the thermal stability z-score in experiment [1], in experiment [2] (setting [3]) and in experiment [2] (arsenate co-treatment: none) were -0.387, -0.149 and -0.836, respectively.

As for CLIC3 (UniProt O95833), the figures for the thermal stability z-score in experiment [1], in experiment [2] (setting [3]) and in experiment [2] (arsenate co-treatment: none) were -0.0618, 0.00456 and 0.0631, respectively.

Turning to RPS21 (UniProt P63220), the thermal stability z-score in experiment [1] was -0.196; in experiment [2] (setting [3]), 0.253; in experiment [2] (arsenate co-treatment: none) it was 0.512.

For DCTN3 (UniProt O75935), the thermal stability z-score in experiment [1] amounted to 0.72; in experiment [2] (setting [3]), 0.0144; in experiment [2] (arsenate co-treatment: none), 0.489.

With NSMCE3 (UniProt Q96MG7), the thermal stability z-score in experiment [1] is 0.119; in experiment [2] (setting [3]), -0.0975; in experiment [2] (arsenate co-treatment: none) it was -0.0424.

For the target ERCC6, the thermal stability z-score in experiment [1] was -0.581; in experiment [2] (setting [3]), 1.08; in experiment [2] (arsenate co-treatment: none) it was 0.347.

(Values after the supplement of paper PMC12463676, “Small-molecule dissolution of stress granules by redox modulation benefits ALS models” (Nature Chemical Biology, 2025).)
